In brackets after ≈: the same amount, converted by molar mass. Counter-ions that a name gives are not always drawn. Like-named read-outs stand apart in the source and are kept apart here.
Legend:
[1] = tested on: histamine paw oedema in guinea pigs; assay: Histamine paw oedema in guinea pigs; assay type: in vivo, guinea pig; settings: oral dose giving paw reaction below 10 units 10 minutes after 50 μg histamine s.p., 2 hours after dosing; for minimal effective dose: Cavia porcellus, read-out: Anaphylaxis in guinea pigs oral effective dose in mg/kg: Histamine oedema
Experimental: Guinea pigs, weighing between 400 and 500 g, are sensitized to ovalbumin by subplantar (s.p.) injection of 0.05 ml of antiserum in the left hind paw. The animals are then starved and orally treated, 24 hours after the sensitization, with saline (=control animals) or a particular dose of the compound under investigation. The histamine injection (at a dose of 50 μg) was given s.p. in the right hind paw 2 hours after the oral pretreatment with the compound.

[2] = tested on: Guinea-pig ileum strips, histamine-induced contraction; assay: Anti-histamine activity in "vitro": histamine-induced spasms of guinea-pig ileum strips; assay type: cell-based; settings: histamine 0.5 mg/liter, 5 minutes incubation, concentration giving significant inhibition (50%) of the contraction; for IC50: Cavia porcellus, 5 min
Experimental: The histamine--(0.5 mg/liter) induced spasms are recorded Kymographically with an isotonic lever giving a 5-fold magnification.

[3] = tested on: Guinea pigs sensitized to ovalbumin (anaphylactic shock); assay: Anaphylaxis in guinea pigs: protection against death after ovalbumin challenge (survival); assay type: in vivo, guinea pig; settings: estimated ED50, oral, protection against death after i.v. 0.6 mg ovalbumin; for ED50: Cavia porcellus, read-out: Anaphylaxis in guinea pigs oral effective dose in mg/kg: Survival
Experimental: The anti-anaphylactic and antihistaminic effects of the subject compounds (I) and salts thereof are studied "in vivo" in guinea pigs.
Guinea pigs, weighing between 400 and 500 g, are sensitized to ovalbumin by subplantar (s.p.) injection of 0.05 ml of antiserum in the left hind paw. The animals are then starved and orally treated, 24 hours after the sensitization, with saline (=control animals) or a particular dose of the compound under investigation.
The histamine injection (at a dose of 50 μg) was given s.p. in the right hind paw 2 hours after the oral pretreatment with the compound. The diameters of both hind paws are first measured before the histamine injection is given and again 10 minutes thereafter. The animals are challenged intravenously with 0.6 mg of ovalbumin 30 minutes after the histamine injection. All control animals develop typical primary anaphylactic shock symptoms (coughing, difficult breathing, convulsions) and 85% of these control animals die within 15 minutes after the ovalbumin injection. Protection against death is used as the criterion for possible drug effects and the estimated ED50 -value, i.e. the oral dose whereby the protection is observed in 50% of the guinea pigs, is listed in the tables below.

[4] = Table I-b, read-out: Histamine in "vitro" (ileum) effective conc.
[5] = Table I-a, read-out: Histamine in "vitro" (ileum) effective conc.

Structure (SMILES)	minimal effective dose ([1]; Table I-a) [mg/kg]	IC50 [2, 5] [µg/mL]	ED50 ([3]; Table I-a) [mg/kg]	other results
Fc1ccc(C(c2ccc(F)cc2)N2CCN(CCCn3cnc4ccccc43)CC2)cc1.O [I-b: M=H, R1=H, (CH2)3, R6=4-F, R7=4-F, 1-[3-{4-[bis(4-fluorophenyl)methyl]-1-piperazinyl}propyl]-1H-benzimidazole hydrate]				minimal effective dose ([1]; Table I-b): 0.31 mg/kg; IC50 [2, 4]: 0.02 µg/mL; ED50 ([3]; Table I-b): 0.16 mg/kg
O=c1[nH]c2ccccc2n1CCN1CCN(C(c2ccccc2)c2ccc(F)cc2)CC1 (stereo not drawn) [1-[2-{4-[α-(4-fluorophenyl)-α-phenylmethyl]-1-piperazinyl}ethyl]-1,3-dihydro-2H-benzimidazol-2-one]	0.16	0.02 (≈ 0.0465 µM)	0.31	
CSc1nc2ccccc2n1CCCN1CCN(C(c2ccccc2)c2ccccc2)CC1 [I-b: M=CH3S, R1=H, (CH2)3, R6=H, R7=H, 1-{3-[4-(diphenylmethyl)-1piperazinyl]propyl}-2-(methylthio)-1H-benzimidazole trihydrochloride.hydrate]				minimal effective dose ([1]; Table I-b): 1.25 mg/kg; IC50 [2, 4]: 0.16 µg/mL; ED50 ([3]; Table I-b): 1.25 mg/kg
O=c1[nH]c2ccccc2n1CCCCN1CCN(C(c2ccccc2)c2ccccc2)CC1 [I-a: L=H, R1=H, R2=H, (CH2)4, R6=H, R7=H, 1-{4-[4-(diphenylmethyl)-1piperazinyl]butyl}-1,3-dihydro-2H-benzimidazol-2-one]	0.31	0.01 (≈ 0.0227 µM)	0.16	
CC(C)O.Cl.Cl.Cl.Cl.Cl.Cl.Clc1cccc(C(c2ccccc2)N2CCN(CCCn3cnc4ccccc43)CC2)c1.Clc1cccc(C(c2ccccc2)N2CCN(CCCn3cnc4ccccc43)CC2)c1.O.O (stereo not drawn) [I-b: M=H, R1=H, (CH2)4, R6=3-Cl, R7=H, 1-[3-{4-[(3-chlorophenyl)phenylmethyl]-1-piperazinyl}propyl]-1H-benzimidazole trihydrochloride.hydrate.hemi-2-propanolate]				Anaphylaxis in guinea pigs oral effective dose in mg/kg: Histamine oedema ([1]; Table I-b): 1.25 mg/kg; Histamine in "vitro" (ileum) effective conc. ([2]; Table I-b): 0.01 mg/L; Anaphylaxis in guinea pigs oral effective dose in mg/kg: Survival ([3]; Table I-b): 1.25 mg/kg
Fc1ccc(C(c2ccccc2)N2CCN(CCCn3cnc4ccccc43)CC2)cc1 (stereo not drawn) [I-b: M=H, R1=H, (CH2)3, R6=4-F, R7=H]				minimal effective dose ([1]; Table I-b): 0.31 mg/kg; IC50 [2, 4]: 0.005 µg/mL (≈ 0.0117 µM); ED50 ([3]; Table I-b): 0.31 mg/kg
Nc1nc2ccccc2n1CCCN1CCN(C(c2ccccc2)c2ccccc2)CC1 [I-b: M=H2N, R1=H, (CH2)3, R6=H, R7=H, 1-{3-[4-(diphenylmethyl)-1-piperazinyl]propyl}-1H-benzimidazol-2-amine]				minimal effective dose ([1]; Table I-b): 2.5 mg/kg; IC50 [2, 4]: ≤ 0.16 µg/mL; ED50 ([3]; Table I-b): 2.5 mg/kg
O=c1n(CO)c2ccccc2n1CCCN1CCN(C(c2ccccc2)c2ccccc2)CC1 [1-{3-[4-(diphenylmethyl)-1-piperazinyl]propyl}-1,3-dihydro-3-(hydroxymethyl)-2H-benzimidazol-2-one]	0.31	0.01 (≈ 0.0219 µM)	0.31	
Cl.Cl.O=c1n(CCCN2CCN(C(c3ccccc3)c3ccccc3)CC2)c2ccccc2n1Cc1ccccc1 [1-{3-[4-(diphenylmethyl)-1-piperazinyl]propyl}-1,3-dihydro-3-(phenylmethyl)-2H-benzimidazol-2-one dihydrochloride]	1.25	0.16	1.25	
CC(=O)n1c(=O)n(CCCN2CCN(C(c3ccccc3)c3ccccc3)CC2)c2ccccc21 [1-acetyl-3-{3-[4-(diphenylmethyl)-1-piperazinyl]propyl}-1,3-dihydro-2H-benzimidazol-2-one]	0.31	0.005 (≈ 0.0107 µM)	0.1	
O=c1[nH]c2ccccc2n1CCCN1CCN(C(c2ccc(Cl)cc2)c2cccnc2)CC1 (stereo not drawn) [I-e: Ar1=4-Cl-C6H4, Ar2=3-pyridinyl, 1-[3-{4-[(4-chlorophenyl)(3-pyridinyl)methyl]-1-piperazinyl}propyl]-1,3-dihydro-2H-benzimidazol-2-one]				minimal effective dose ([1]; Table I-e): 2.5 mg/kg; IC50 ([2]; Table I-e, read-out: Histamine in "vitro" (ileum) effective dose): 0.08 µg/mL (≈ 0.173 µM); ED50 ([3]; Table I-e): 1.25 mg/kg
O=c1[nH]c2ccccc2n1CCN1CCN(C(c2ccc(F)cc2)c2ccc(F)cc2)CC1 [1-[2-{4-[bis(4-fluorophenyl)methyl]-1-piperazinyl}ethyl]-1,3-dihydro-2H-benzimidazol-2-one hemihydrate]	0.63	0.02	0.63	
Cc1ccc(C(c2ccc(F)cc2)N2CCN(CCCn3c(=O)[nH]c4ccccc43)CC2)cc1 (stereo not drawn) [1-[3-{4-[(4-fluorophenyl)-(4-methylphenyl)methyl]-1-piperazinyl}propyl]-1,3-dihydro-2H-benzimidazol-2-one]	< 2.5	0.16 (≈ 0.349 µM)	< 2.5	
O.O=c1[nH]c2ccc(Cl)cc2n1CCCN1CCN(C(c2ccc(F)cc2)c2ccc(F)cc2)CC1 [1-[3-{4-[bis(4-fluorophenyl)methyl]-1-piperazinyl}propyl]-6-chloro-1,3-dihydro-2H-benzimidazol-2-one hydrate]	1.25	0.02	0.63	
O=c1[nH]c2ccccc2n1CCCN1CCN(C(c2ccc(Cl)cc2)c2ccccc2F)CC1 (stereo not drawn) [1-[3-{4-[α-(4-chlorophenyl)-α-(2-fluorophenyl)]-1-piperazinyl}propyl]-1,3-dihydro-2H-benzimidazol-2-one]	1.25	0.02 (≈ 0.0418 µM)	0.31	
O=c1[nH]c2ccccc2n1CCCN1CCN(C(c2ccccc2)c2ccccc2F)CC1 (stereo not drawn) [1-[3-{4-[(2-fluorophenyl)phenylmethyl]-1-piperazinyl}propyl]-1,3-dihydro-2H-benzimidazol-2-one]	< 2.5	0.02 (≈ 0.045 µM)	< 2.5	
O=c1[nH]c2cc(Cl)ccc2n1CCN1CCN(C(c2ccccc2)c2ccccc2)CC1 [5-chloro-1-{2-[4-(diphenylmethyl)-1-piperazinyl]ethyl}-1,3-dihydro-2H-benzimidazol-2-one]	1.25	0.01 (≈ 0.0224 µM)	0.63	
O=c1[nH]c2ccccc2n1CCCN1CCN(C(c2ccccc2)c2ccc([N+](=O)[O-])cc2)CC1 (stereo not drawn) [1,3-dihydro-1-[3-{4-[(4-nitrophenyl)phenylmethyl]-1-piperazinyl}propyl]-2H-benzimidazol-2-one]	< 2.5	0.16 (≈ 0.339 µM)	< 2.5	
O=c1[nH]c2ccccc2n1CCCN1CCN(C(c2ccc(Cl)cc2)c2ccc(Cl)cc2)CC1 [1-[3-{4-[bis(4-chlorophenyl)methyl]-1-piperazinyl}propyl]-1,3-dihydro-2H-benzimidazol-2-one]	< 2.5	0.16 (≈ 0.323 µM)	< 2.5	
O=c1[nH]c2ccccc2n1CCCCCN1CCN(C(c2ccc(F)cc2)c2ccc(F)cc2)CC1 [1-[5-{4-[bis(4-fluorophenyl)-methyl]-1-piperazinyl}pentyl]-1,3-dihydro-2H-benzimidazol-2-one dihydrochloride.hydrate]	2.5	0.01	1.25	
Clc1ccc(C(c2ccccc2)N2CCN(CCCn3cnc4ccccc43)CC2)cc1 (stereo not drawn) [I-b: M=H, R1=H, (CH2)3, R6=4-Cl, R7=H, 1-[3-{4-[(4-chlorophenyl)phenylmethyl]-1-piperazinyl}propyl]-1H-benzimidazole]				minimal effective dose ([1]; Table I-b): 0.31 mg/kg; IC50 [2, 4]: 0.01 µg/mL (≈ 0.0225 µM); ED50 ([3]; Table I-b): 0.08 mg/kg
O=c1[nH]c2ccccc2n1CCCCCN1CCN(C(c2ccccc2)c2ccccc2)CC1 [I-a: L=H, R1=H, R2=H, (CH2)5, R6=H, R7=H, 1-{5-[4-(diphenylmethyl)-1-piperazinyl]pentyl-1,3-dihydro-2H-benzimidazol-2-one dihydrochloride.hydrate]	2.5	0.01	0.63	

From US4250176A, “Piperazine derivatives” (priority 1979, dated 1981)
